Measured values: patent US20120141435A1, “USE OF OLIVE LEAF EXTRACTS IN A PHARMACEUTICAL COMPOSITION FOR INDUCING ANGIOGENESIS AND VASCULOGENESIS” (SANIDAD Y RESIDENCIAS 21, S.A., priority 2009, published 2012)

Tested on: 6 mm excisional wounds on the back of db/db mice
Assay: Excisional wound healing in db/db mice (digital planimetry)
Assay type: in vivo, mouse
Settings: topical on days 0, 2, 4, 6, 8, 10e-2, 10e-5, 10e-7 m oleuropein, treated (right) and untreated (left) wound, vs PBS
Procedure: Female db/db mice (BKS.Cg-m+/+Lepr^db) aged 10 to 12 weeks were used. They were obtained through Charles River Laboratories (Spain), the average weight of the animals upon reception was 35.64 g. Throughout the entire study, the animals were kept in animal houses particularly designed for allowing control of the animals' environment, such as relative humidity (30-70%), temperature (22±2° C.), air pressure, number of renewals and light period ( 12/12 hours of light/darkness). Access to water was “ad libitum” and the diet was a standard dry pellet diet for rats supplied by PanLab (Barcelona, Spain). After the acclimatization period, the mice were randomly distributed into the different study groups. […]
On day 0 of the experiment, two 6 mm excisional wounds were made on the back of every mouse under aseptic conditions and using surgical instruments. […] The wound healing process was tracked and evaluated throughout the experiment (see FIG. 3). […]
In order to track the wound healing, a digital planimetry method was used whereby the area of every wound was quantified. The inter-group differences have been determined by means of a two-way ANOVA statistical analysis followed by a Bonferroni post-hoc analysis. […]

VEGF
wound healing (wound area): healing effect
